From ChEMBL document CHEMBL5126540, “Resveratrol-based compounds and neurodegeneration: Recent insight in multitarget therapy” (Eur J Med Chem, 2022)

Experiments:
C2C12 = assay: Cytotoxicity against mouse C2C12 cells incubated for 24 to 48 hrs by MTT assay; assay type: toxicity, cell-based; settings: time 24-48 hrs
Acetylcholinesterase [1] = biological target: T1, Acetylcholinesterase (Homo sapiens, UniProt P22303); assay: Inhibition of AChE (unknown origin) incubated for 30 mins by Ellman's method
T1 sequence (P22303 whole entry): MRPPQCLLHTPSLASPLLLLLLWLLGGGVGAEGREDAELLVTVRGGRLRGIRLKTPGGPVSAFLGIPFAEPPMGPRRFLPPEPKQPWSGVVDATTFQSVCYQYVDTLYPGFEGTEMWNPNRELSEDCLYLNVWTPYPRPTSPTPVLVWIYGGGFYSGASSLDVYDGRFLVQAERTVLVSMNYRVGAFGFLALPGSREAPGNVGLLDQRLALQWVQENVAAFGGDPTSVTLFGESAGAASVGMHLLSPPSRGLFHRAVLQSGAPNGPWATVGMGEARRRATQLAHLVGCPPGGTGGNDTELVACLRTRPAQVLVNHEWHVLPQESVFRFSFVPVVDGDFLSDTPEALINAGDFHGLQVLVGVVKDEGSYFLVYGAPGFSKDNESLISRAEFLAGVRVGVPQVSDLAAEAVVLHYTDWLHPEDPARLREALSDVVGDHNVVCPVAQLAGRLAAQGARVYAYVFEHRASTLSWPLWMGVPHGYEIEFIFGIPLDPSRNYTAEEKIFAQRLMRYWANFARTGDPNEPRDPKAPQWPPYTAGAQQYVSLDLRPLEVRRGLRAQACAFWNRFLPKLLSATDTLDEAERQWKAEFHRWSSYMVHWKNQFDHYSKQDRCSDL

Cholinesterase [2] = biological target: T2, Cholinesterase (Homo sapiens, UniProt P06276)
T2 sequence (P06276 whole entry): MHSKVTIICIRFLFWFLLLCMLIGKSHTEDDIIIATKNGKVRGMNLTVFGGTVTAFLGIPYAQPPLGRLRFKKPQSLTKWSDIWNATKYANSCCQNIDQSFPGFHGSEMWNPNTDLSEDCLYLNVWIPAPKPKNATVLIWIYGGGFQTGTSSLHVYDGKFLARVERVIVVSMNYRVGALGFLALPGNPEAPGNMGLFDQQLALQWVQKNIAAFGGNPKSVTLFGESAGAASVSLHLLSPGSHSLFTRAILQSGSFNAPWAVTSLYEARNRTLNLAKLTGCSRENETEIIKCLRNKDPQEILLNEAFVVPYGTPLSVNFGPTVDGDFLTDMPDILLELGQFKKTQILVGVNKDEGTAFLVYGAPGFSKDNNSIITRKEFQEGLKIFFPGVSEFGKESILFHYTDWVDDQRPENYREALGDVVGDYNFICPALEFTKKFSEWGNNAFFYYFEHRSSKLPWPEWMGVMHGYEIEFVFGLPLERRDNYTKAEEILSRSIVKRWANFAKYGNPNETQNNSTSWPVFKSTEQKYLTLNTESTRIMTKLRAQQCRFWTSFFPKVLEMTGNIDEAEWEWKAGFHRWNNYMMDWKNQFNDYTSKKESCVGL
Description: Inhibition of BChE (unknown origin) incubated for 30 mins by Ellman's method

[3] = biological target: T3, Polyunsaturated fatty acid 5-lipoxygenase (Homo sapiens, UniProt P09917); assay: Inhibition of human LOX-5 in presence of LOX substrate solution incubated for 10 mins by Varioskan-flash microplate spectrophotometer reader
T3 sequence (P09917 whole entry): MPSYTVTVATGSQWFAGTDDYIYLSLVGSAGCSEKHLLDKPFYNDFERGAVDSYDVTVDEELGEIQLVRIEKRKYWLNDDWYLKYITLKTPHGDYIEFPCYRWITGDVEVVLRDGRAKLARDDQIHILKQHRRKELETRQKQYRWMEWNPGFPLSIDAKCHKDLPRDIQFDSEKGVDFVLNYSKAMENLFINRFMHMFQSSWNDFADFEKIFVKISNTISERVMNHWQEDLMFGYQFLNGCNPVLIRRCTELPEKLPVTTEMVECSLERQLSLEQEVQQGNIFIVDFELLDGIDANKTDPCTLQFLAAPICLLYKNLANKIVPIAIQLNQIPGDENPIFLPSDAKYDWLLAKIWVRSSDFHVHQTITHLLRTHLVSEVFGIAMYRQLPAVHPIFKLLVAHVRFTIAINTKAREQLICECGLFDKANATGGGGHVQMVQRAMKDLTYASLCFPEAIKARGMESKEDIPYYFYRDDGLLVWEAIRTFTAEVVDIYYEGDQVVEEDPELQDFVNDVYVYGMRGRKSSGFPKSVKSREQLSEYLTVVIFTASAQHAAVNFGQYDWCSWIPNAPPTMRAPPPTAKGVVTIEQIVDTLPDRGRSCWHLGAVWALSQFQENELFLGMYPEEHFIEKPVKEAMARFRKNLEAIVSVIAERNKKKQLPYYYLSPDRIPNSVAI

Acetylcholinesterase [4] = biological target: T1, Acetylcholinesterase; assay: Binding affinity to AChE (unknown origin) assessed as inhibition constant
[5] = Antioxidant activity assessed as ABTS radical scavenging activity; assay type: functional
[6] = time 30.0 min
Carbonic anhydrase 2 = Carbonic anhydrase 2 (Homo sapiens, UniProt P00918)
Description: Binding affinity to carbonic anhydrase 2 (unknown origin) assessed as inhibition constant

Carbonic anhydrase 1 = Carbonic anhydrase 1 (Homo sapiens, UniProt P00915); assay: Binding affinity to carbonic anhydrase 1 (unknown origin) assessed as inhibition constant
Chain of Carbonic anhydrase 1 (P00915 whole entry): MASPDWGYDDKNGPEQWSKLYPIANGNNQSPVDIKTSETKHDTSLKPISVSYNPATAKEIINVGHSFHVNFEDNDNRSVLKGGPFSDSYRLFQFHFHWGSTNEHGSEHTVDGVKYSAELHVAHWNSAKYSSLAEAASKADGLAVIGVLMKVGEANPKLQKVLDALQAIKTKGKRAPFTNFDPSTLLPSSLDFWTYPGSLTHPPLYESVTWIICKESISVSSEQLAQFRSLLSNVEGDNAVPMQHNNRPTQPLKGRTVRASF

Beta-secretase 1 = Beta-secretase 1 (Homo sapiens, UniProt P56817); assay: Inhibition of human recombinant BACE-1 expressed in baculovirus using Rh-EVNLDAEFK-Quencher as substrate incubated for 60 mins by measuring increase in fluorescence intensity using fluorescence microplate reader
Chain of Beta-secretase 1 (P56817 whole entry): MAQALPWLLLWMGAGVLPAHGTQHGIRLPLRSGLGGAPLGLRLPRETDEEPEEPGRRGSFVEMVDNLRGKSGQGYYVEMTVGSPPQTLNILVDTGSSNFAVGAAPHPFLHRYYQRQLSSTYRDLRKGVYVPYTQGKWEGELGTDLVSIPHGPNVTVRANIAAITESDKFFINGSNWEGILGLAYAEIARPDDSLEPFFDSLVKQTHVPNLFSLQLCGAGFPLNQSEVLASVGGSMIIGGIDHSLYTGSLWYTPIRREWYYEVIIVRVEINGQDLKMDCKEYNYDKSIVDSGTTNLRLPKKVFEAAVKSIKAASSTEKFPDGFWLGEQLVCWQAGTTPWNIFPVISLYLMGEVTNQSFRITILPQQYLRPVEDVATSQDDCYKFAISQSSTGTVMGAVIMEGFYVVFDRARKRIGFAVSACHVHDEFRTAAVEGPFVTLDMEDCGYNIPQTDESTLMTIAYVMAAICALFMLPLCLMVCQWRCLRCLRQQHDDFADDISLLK

[7] = Antioxidant activity assessed as DPPH radical scavenging activity measured after 45 mins by Varioskan-flash microplate spectrophotometer reader; assay type: functional
Liver = assay: tissue or blood; settings: Canis lupus familiaris
Description: Antioxidant activity assessed as Fe2+/ascorbate-induced MDA level in liver mitochondria (unknown origin) preincubated for 30 mins followed by addition of Fe2+/ascorbate measured after 30 mins

Acetylcholinesterase [8] = biological target: T1, Acetylcholinesterase; assay: Binding affinity to AChE (unknown origin) assessed as inhibition constant using AChI as substrate incubated for 15 mins by Ellman's spectrophotometric method
[9] = Antioxidant activity assessed as trolox equivalent of ORAC radical scavenging activity by ORAC-FL assay; assay type: functional
[10] = biological target: T4, Amine oxidase [flavin-containing] B (Homo sapiens, UniProt P27338)
T4 sequence (P27338 whole entry): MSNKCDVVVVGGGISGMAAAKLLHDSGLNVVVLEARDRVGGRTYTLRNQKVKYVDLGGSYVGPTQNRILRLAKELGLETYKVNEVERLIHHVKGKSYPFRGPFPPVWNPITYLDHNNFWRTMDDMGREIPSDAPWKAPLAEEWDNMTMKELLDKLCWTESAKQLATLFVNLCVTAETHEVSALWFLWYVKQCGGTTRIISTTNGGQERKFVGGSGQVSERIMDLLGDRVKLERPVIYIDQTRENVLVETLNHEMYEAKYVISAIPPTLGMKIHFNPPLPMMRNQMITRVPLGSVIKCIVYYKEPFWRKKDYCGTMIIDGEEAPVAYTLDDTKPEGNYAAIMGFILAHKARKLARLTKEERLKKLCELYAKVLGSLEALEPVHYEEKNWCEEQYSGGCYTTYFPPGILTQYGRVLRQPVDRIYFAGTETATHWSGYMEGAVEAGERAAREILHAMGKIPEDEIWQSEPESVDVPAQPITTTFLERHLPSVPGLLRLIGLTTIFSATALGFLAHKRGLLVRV
Description: Inhibition of human recombinant MAO-B incubated for 30 mins by fluorescence based assay

[11] = biological target: T5, Amine oxidase [flavin-containing] A (Homo sapiens, UniProt P21397)
T5 sequence (P21397 whole entry): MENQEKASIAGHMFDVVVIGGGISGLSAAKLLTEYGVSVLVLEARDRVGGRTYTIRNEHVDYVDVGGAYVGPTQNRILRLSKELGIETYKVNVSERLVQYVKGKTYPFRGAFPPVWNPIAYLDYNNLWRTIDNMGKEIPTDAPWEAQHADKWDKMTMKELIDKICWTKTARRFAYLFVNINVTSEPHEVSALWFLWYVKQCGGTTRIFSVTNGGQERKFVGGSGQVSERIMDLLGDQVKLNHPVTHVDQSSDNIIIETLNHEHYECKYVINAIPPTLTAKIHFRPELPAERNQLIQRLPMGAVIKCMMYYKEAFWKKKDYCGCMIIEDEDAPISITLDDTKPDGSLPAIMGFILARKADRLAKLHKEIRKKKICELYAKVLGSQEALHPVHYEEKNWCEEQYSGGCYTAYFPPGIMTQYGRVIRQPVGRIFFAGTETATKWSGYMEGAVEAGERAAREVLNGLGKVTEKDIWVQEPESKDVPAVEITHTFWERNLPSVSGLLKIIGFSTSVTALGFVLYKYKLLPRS
Description: Inhibition of human recombinant MAO-A incubated for 15 mins by Amplex red MAO assay

[12] = biological target: T6, Amyloid-beta precursor protein (Homo sapiens, UniProt P05067)
T6 sequence (P05067 whole entry): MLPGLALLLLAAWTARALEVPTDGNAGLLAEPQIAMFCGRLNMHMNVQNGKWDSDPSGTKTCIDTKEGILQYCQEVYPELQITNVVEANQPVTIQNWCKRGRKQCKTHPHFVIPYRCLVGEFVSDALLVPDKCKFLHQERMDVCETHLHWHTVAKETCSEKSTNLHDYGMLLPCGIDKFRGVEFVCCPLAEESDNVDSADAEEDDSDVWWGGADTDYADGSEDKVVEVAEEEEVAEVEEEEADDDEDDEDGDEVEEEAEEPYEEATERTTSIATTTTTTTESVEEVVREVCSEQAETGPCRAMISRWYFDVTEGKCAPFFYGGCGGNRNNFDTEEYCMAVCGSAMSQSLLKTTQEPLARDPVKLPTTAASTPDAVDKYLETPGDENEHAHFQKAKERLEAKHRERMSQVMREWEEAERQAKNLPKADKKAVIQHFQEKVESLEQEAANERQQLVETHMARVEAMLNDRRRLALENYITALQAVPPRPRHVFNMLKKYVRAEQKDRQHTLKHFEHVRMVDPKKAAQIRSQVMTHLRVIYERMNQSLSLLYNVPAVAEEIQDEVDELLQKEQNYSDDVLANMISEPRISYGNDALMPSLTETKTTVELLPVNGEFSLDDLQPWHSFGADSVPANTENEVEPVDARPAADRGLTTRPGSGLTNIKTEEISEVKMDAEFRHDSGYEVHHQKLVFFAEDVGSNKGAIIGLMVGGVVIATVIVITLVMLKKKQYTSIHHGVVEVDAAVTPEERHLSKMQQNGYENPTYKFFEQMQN

[13] = biological target: T6, Amyloid-beta precursor protein; assay: Inhibition of HFIP-treated Amyloid beta (1 to 42) (unknown origin) self aggregation at 20 uM incubated for 46 to 48 hrs by fluorescence based assay relative to control; settings: time 46-48 hrs
[14] = biological target: T4, Amine oxidase [flavin-containing] B; assay: Inhibition of human recombinant MAO-B incubated for 15 mins by Amplex red MAO assay
PC-12 = assay: Neuroprotective activity against H2o2-induced rat PC-12 cells assessed as cell viability preincubated for 2 hrs followed by H2O2 treatment measured after 24 hrs by MTT assay; assay type: functional; settings: time 26 hrs
Acetylcholinesterase [15] = biological target: Acetylcholinesterase (Electrophorus electricus, UniProt O42275); assay: Inhibition of electric eel AChE measured after 2 mins by Ellman's method
Chain of Acetylcholinesterase (Electrophorus electricus, UniProt O42275) (O42275 whole entry): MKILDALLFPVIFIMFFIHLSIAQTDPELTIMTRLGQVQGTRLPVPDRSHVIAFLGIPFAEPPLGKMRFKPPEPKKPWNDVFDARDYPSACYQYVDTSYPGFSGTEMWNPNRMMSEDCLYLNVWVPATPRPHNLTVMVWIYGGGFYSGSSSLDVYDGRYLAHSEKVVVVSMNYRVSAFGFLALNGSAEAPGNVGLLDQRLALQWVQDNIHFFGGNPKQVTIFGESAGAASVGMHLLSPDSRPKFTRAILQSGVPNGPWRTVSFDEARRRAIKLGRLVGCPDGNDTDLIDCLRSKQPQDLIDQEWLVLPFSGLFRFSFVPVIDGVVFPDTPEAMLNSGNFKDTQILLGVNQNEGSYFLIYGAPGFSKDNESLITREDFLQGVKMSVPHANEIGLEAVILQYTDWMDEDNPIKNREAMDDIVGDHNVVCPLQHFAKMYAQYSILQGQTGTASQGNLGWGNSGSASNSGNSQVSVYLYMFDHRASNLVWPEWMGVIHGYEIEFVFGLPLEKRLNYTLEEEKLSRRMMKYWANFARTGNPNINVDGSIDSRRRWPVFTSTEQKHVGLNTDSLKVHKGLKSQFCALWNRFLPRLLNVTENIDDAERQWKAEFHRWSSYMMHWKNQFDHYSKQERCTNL

[16] = Permeability of the compound across blood brain barrier measured after 18 hrs by parallel artificial membrane permeation assay; assay type: ADME; settings: PAMPA, read-out: permeability
[17] = biological target: T6, Amyloid-beta precursor protein; assay: Inhibition of Amyloid beta (1 to 42) (unknown origin) self aggregation at 25 uM incubated for 24 hrs by ThT-based fluorescence assay relative to control
[18] = Antioxidant activity assessed as ABTS radical scavenging activity measured after 6 mins; assay type: functional
[19] = Antioxidant activity assessed as DPPH radical scavenging activity measured after 20 mins; assay type: functional
[20] = Antioxidant activity assessed as galvinoxyl radical scavenging activity measured after 20 mins; assay type: functional
[21] = Antioxidant activity assessed as DPPH radical scavenging activity measured after 15 mins; assay type: functional
Acetylcholinesterase [22] = biological target: T1, Acetylcholinesterase; assay: Inhibition of AChE (unknown origin) using ATCI as substrate incubated for 30 mins by Ellman's method
[23] = biological target: T6, Amyloid-beta precursor protein; assay: Inhibition of Amyloid beta (1 to 42) (unknown origin) self aggregation at 25 uM by ThT-based fluorescence assay relative to control
Cholinesterase [24] = biological target: T2, Cholinesterase; assay: Inhibition of BChE (unknown origin) using BTCI as substrate incubated for 30 mins by Ellman's method

## Oc1ccc(/C=C/c2ccc(C(F)(F)F)cc2)cc1Cl
C2C12
  Activity: 150%

## COc1cc(/C=C/c2cc(=O)oc3c2ccc2oc(-c4cccc(F)c4)cc23)cc(OC)c1
Acetylcholinesterase [1]
  IC50: 1800 nM
Cholinesterase [2]
  IC50: 3500 nM
[3]
  IC50: 13900 nM

## NS(=O)(=O)c1ccc(NCc2cccc(Cl)c2O)cc1
Acetylcholinesterase [4]
  Ki: 21 nM

## NS(=O)(=O)c1ccc(NCc2cccc(Br)c2O)cc1
[5]
  Activity: 74.5%
[6]
  Activity: 4.2%
Acetylcholinesterase [4]
  Ki: 77.7 nM

## NS(=O)(=O)c1ccc(/N=C/c2cc(Br)cc(Cl)c2O)cc1
Carbonic anhydrase 2
  Ki: 16 nM
Carbonic anhydrase 1
  Ki: 32.1 nM
Acetylcholinesterase [4]
  Ki: 21 nM

## COc1cc(/C=C/c2cc(=O)oc3c2ccc2oc(-c4ccc(Cl)cc4)cc23)cc(OC)c1
Acetylcholinesterase [1]
  IC50: 1800 nM
Cholinesterase [2]
  IC50: 3500 nM
[3]
  IC50: 13900 nM

## COc1cc(/C=C/c2cc(=O)oc3c2ccc2oc(-c4cccc(Cl)c4)cc23)cc(OC)c1
Acetylcholinesterase [1]
  IC50: 1800 nM
Cholinesterase [2]
  IC50: 3500 nM
[3]
  IC50: 13900 nM

## COc1cc(/C=C/c2cc(=O)oc3c2ccc2oc(-c4cc(OC)cc(OC)c4)cc23)cc(OC)c1
Acetylcholinesterase [1]
  IC50: 2800 nM
Beta-secretase 1
  IC50: 15300 nM
Cholinesterase [2]
  IC50: 6300 nM
[3]
  IC50: 13900 nM
[7]
  Activity: 6.8 µM

## CCc1nc(/C=C/c2ccc(O)c(O)c2)ccc1O
Liver
  EC50: 2430 nM

## NS(=O)(=O)c1ccc(/N=C/c2cc(Br)cc(Br)c2O)cc1
Acetylcholinesterase [8]
  Ki: 2540 nM
Carbonic anhydrase 1
  Ki: 32.1 nM
Acetylcholinesterase [4]
  Ki: 21 nM

## COc1cc(/C=C/c2cc(=O)oc3c2ccc2oc(-c4ccccc4)cc23)cc(OC)c1
Acetylcholinesterase [1]
  IC50: 1800 nM
Cholinesterase [2]
  IC50: 3500 nM
[3]
  IC50: 13900 nM

## Cc1ncc(/C=C/c2ccc(CN3CCCCC3)c(O)c2)c2c1OC(C)(C)OC2
[9]
  Activity: 1.52 µM
[10]
  IC50: 1500 nM

## Clc1ccc(/C=N/c2ccc3cn[nH]c3c2)cc1Cl
[11]
  IC50: 2600 nM
[12]
  IC50: 19500 nM
[13]
  inhibition: 58.9%
[14]
  IC50: 1140 nM

## COc1ccc(-c2cc3c(ccc4c(/C=C/c5cc(OC)cc(OC)c5)cc(=O)oc43)o2)cc1
Acetylcholinesterase [1]
  IC50: 1800 nM
Cholinesterase [2]
  IC50: 3500 nM
[3]
  IC50: 13900 nM

## COc1cc(/C=C/c2cc(=O)oc3c2ccc2oc(-c4ccc(C)cc4)cc23)cc(OC)c1
Acetylcholinesterase [1]
  IC50: 1800 nM
Cholinesterase [2]
  IC50: 3500 nM
[3]
  IC50: 13900 nM

## CCN(CC)C[C@@H](O)COc1ccc(/C=C/c2cc(OC)cc(OC)c2)cc1
PC-12
  Activity: 74.9%
Acetylcholinesterase [15]
  IC50: 24000 nM
[16]
  Papp at 18 h: 8.12 ×10⁻⁶ cm/s
[17]
  inhibition: 40.2%

## Oc1ccc(/C=C/c2cc(O)cc(O)c2)cc1 [RESVERATROL]
PC-12
  Activity: 81.23%
[18]
  RC50: 1.43 µmol/mL
C2C12
  Activity: 110%
[19]
  RC50: 26.4 µmol/mL
[20]
  RC50: 72.7 µmol/mL
Liver
  EC50: 7440 nM
[14]
  IC50: 31800 nM

## Cc1ncc(/C=C/c2ccc(CN3CCOCC3)c(O)c2)c(CO)c1O
[9]
  Activity: 1.52 µM

## COc1cc(/C=C/c2cc(=O)oc3c2ccc2oc(-c4ccc(F)cc4)cc23)cc(OC)c1
Acetylcholinesterase [1]
  IC50: 1800 nM
Cholinesterase [2]
  IC50: 3500 nM
[3]
  IC50: 13900 nM

## Oc1ccc(/N=C/c2ccc(O)c(O)c2O)cc1
[18]
  RC50: 1.98 µmol/mL
[19]
  RC50: 8.77 µmol/mL
[20]
  RC50: 15.4 µmol/mL

## CCn1c2ccccc2c2cc(/C=C/c3ccc(NC(=S)NCCN4CCCC4)cc3)ccc21
[21]
  Activity: 86.1 µM
Acetylcholinesterase [22]
  IC50: 2640 nM
[23]
  inhibition: 51.3%
Cholinesterase [24]
  IC50: 1290 nM

## Cc1ncc(/C=C/c2ccc(CN3CCCCC3)c(O)c2)c(CO)c1O
[9]
  Activity: 1.52 µM
[10]
  IC50: 2110 nM
